{"source": "paper PMC8286840", "about": "“Identifying SARS-CoV-2 antiviral compounds by screening for small molecule inhibitors of Nsp3 papain-like protease” (Biochemical Journal, 2021)", "key": {"[1]": {"target": "T1, SARS-CoV-2 PLpro (nsp3 1564–1878) (Severe acute respiratory syndrome coronavirus 2, UniProt P0DTD1)", "assay": "biochemical", "set-up": "FRET-quenched peptide (Pro3) cleavage by PLpro, 10 min pre-incubation, slope over 20 min, normalised to no-compound control", "conditions": "low concentration screen, read-out: % of control remaining"}, "[2]": {"target": "T1, SARS-CoV-2 PLpro (nsp3 1564–1878)", "assay": "biochemical", "set-up": "FRET-quenched peptide (Pro3) cleavage by PLpro, 10 min pre-incubation, slope over 20 min, normalised to no-compound control", "conditions": "high concentration screen, read-out: % of control remaining"}}, "note": "Counter-ions that a name gives are not always drawn. Like-named read-outs stand apart in the source and are kept apart here.", "data": [{"smiles": "Cc1ccc(-c2nn(C(C)(C)CNC(=O)c3ccncc3)c3ncnc(N)c23)cc1", "note": "[WEHI-345]", "values": [{"measurement": "remaining activity at 1.25 µM", "setting": "[1]; Well no.=6690", "value": 96.4, "unit": "%"}, {"measurement": "remaining activity at 3.75 µM", "setting": "[2]; Well no.=6690", "value": 96.2, "unit": "%"}]}, {"smiles": "C/C=C/C/C=C/CCC(=O)[C@H]1O[C@H]1C(N)=O", "note": "[Cerulenin]", "values": [{"measurement": "remaining activity at 1.25 µM", "setting": "[1]; Well no.=3137", "value": 93, "unit": "%"}, {"measurement": "remaining activity at 3.75 µM", "setting": "[2]; Well no.=3137", "value": 102, "unit": "%"}]}, {"smiles": "NCCCNCCS", "note": "[WR-1065 dihydrochloride]", "values": [{"measurement": "remaining activity at 1.25 µM", "setting": "[1]; Well no.=6786", "value": 94.6, "unit": "%"}, {"measurement": "remaining activity at 3.75 µM", "setting": "[2]; Well no.=6786", "value": 94.3, "unit": "%"}]}, {"smiles": "O=C(N[C@H]1CN2CCC1CC2)c1c[nH]c2ccsc2c1=O", "note": "[MKC-733]", "values": [{"measurement": "remaining activity at 1.25 µM", "setting": "[1]; Well no.=5899", "value": 105, "unit": "%"}, {"measurement": "remaining activity at 3.75 µM", "setting": "[2]; Well no.=5899", "value": 108, "unit": "%"}]}, {"smiles": "Cc1ccccc1C(=O)c1ccc(Nc2ccc(Br)cc2N)cc1Cl", "note": "[EO 1428 - (2-Methylphenyl)-[4-[(2-amino-4-bromophenyl)amino]-2-chlorophenyl]methanone]", "values": [{"measurement": "remaining activity at 1.25 µM", "setting": "[1]; Well no.=2634", "value": 87.4, "unit": "%"}, {"measurement": "remaining activity at 3.75 µM", "setting": "[2]; Well no.=2634", "value": 88.7, "unit": "%"}]}, {"smiles": "CCCCC[C@H](O)/C=C/[C@@H]1[C@H]2C/C(=C/CCCC(=O)O)C[C@H]2C[C@H]1O", "note": "[Carbacyclin]", "values": [{"measurement": "remaining activity at 1.25 µM", "setting": "[1]; Well no.=4529", "value": 91.4, "unit": "%"}, {"measurement": "remaining activity at 3.75 µM", "setting": "[2]; Well no.=4529", "value": 95.8, "unit": "%"}]}, {"smiles": "O=C(CCCCCCc1ccccc1)c1ncc(-c2ccccn2)o1", "note": "[7-phenyl-1-[5-(2-pyridinyl)-1,3-oxazol-2-yl]-1-heptanone]", "values": [{"measurement": "remaining activity at 1.25 µM", "setting": "[1]; Well no.=5997", "value": 92.2, "unit": "%"}, {"measurement": "remaining activity at 3.75 µM", "setting": "[2]; Well no.=5997", "value": 91.9, "unit": "%"}]}, {"smiles": "CC(C)C(=O)Nc1ccc([N+](=O)[O-])c(C(F)(F)F)c1", "note": "[Flutamide]", "values": [{"measurement": "remaining activity at 1.25 µM", "setting": "[1]; Well no.=759", "value": 90.8, "unit": "%"}, {"measurement": "remaining activity at 1.25 µM", "setting": "[1]; Well no.=2130", "value": 93, "unit": "%"}, {"measurement": "remaining activity at 3.75 µM", "setting": "[2]; Well no.=759", "value": 97.8, "unit": "%"}, {"measurement": "remaining activity at 3.75 µM", "setting": "[2]; Well no.=2130", "value": 95, "unit": "%"}]}, {"smiles": "O=C(O)C(=O)Cc1ccccc1", "note": "[2-Oxo-3-phenylpropanoic acid]", "values": [{"measurement": "remaining activity at 1.25 µM", "setting": "[1]; Well no.=6877", "value": 109, "unit": "%"}, {"measurement": "remaining activity at 3.75 µM", "setting": "[2]; Well no.=6877", "value": 103, "unit": "%"}]}, {"smiles": "N=C(N)SCCc1cccc(CCSC(=N)N)c1", "note": "[1,3-PBIT dihydrobromide]", "values": [{"measurement": "remaining activity at 1.25 µM", "setting": "[1]; Well no.=1159", "value": 104, "unit": "%"}, {"measurement": "remaining activity at 3.75 µM", "setting": "[2]; Well no.=1159", "value": 104, "unit": "%"}]}, {"smiles": "CC(C)C(N)CC(=O)O", "note": "(stereo not shown) [3-Amino-4-methylpentanoic acid]", "values": [{"measurement": "remaining activity at 1.25 µM", "setting": "[1]; Well no.=6403", "value": 103, "unit": "%"}, {"measurement": "remaining activity at 3.75 µM", "setting": "[2]; Well no.=6403", "value": 105, "unit": "%"}]}, {"smiles": "Cn1c(=O)c2nc[nH]c2n(C)c1=O", "note": "[Theophylline]", "values": [{"measurement": "remaining activity at 1.25 µM", "setting": "[1]; Well no.=1235", "value": 97.1, "unit": "%"}, {"measurement": "remaining activity at 1.25 µM", "setting": "[1]; Well no.=6249", "value": 110, "unit": "%"}, {"measurement": "remaining activity at 1.25 µM", "setting": "[1]; Well no.=8277", "value": 98.3, "unit": "%"}]}, {"smiles": "O=C(c1ccc(Nc2nccc(-c3cc4ccccc4s3)n2)cc1)N1CCC(N2CCCC2)CC1", "note": "[IKK Inhibitor VII]", "values": [{"measurement": "remaining activity at 1.25 µM", "setting": "[1]; Well no.=2439", "value": 103, "unit": "%"}]}, {"smiles": "O=C1CCCN1CC#CCN1CCCC1", "note": "[Oxotremorine sesquifumarate salt]", "values": [{"measurement": "remaining activity at 1.25 µM", "setting": "[1]; Well no.=946", "value": 103, "unit": "%"}]}, {"smiles": "CN(C)CCCN1c2ccccc2Sc2ccccc21", "note": "[Promazine (hydrochloride)]", "values": [{"measurement": "remaining activity at 1.25 µM", "setting": "[1]; Well no.=6711", "value": 103, "unit": "%"}]}, {"smiles": "CC[C@H](C)C(=O)O[C@H]1C[C@@H](C)C=C2C=C[C@H](C)[C@H](CC[C@@H]3C[C@@H](O)CC(=O)O3)[C@H]21", "note": "[Lovastatin]", "values": [{"measurement": "remaining activity at 1.25 µM", "setting": "[1]; Well no.=1830", "value": 99.3, "unit": "%"}]}, {"smiles": "CC(=O)O[C@H]1C(=O)[C@@]2(C)[C@H]([C@H](OC(=O)c3ccccc3)[C@]3(O)C[C@H](OC(=O)[C@H](O)[C@@H](NC(=O)c4ccccc4)c4ccccc4)C(C)=C1C3(C)C)[C@]1(OC(C)=O)CO[C@@H]1C[C@@H]2O", "note": "[Taxol]", "values": [{"measurement": "remaining activity at 1.25 µM", "setting": "[1]; Well no.=1180", "value": 92.6, "unit": "%"}, {"measurement": "remaining activity at 1.25 µM", "setting": "[1]; Well no.=1999", "value": 103, "unit": "%"}, {"measurement": "remaining activity at 1.25 µM", "setting": "[1]; Well no.=3180", "value": 106, "unit": "%"}]}, {"smiles": "Cc1ccc(OC[C@H](O)[C@@H](C)NC(C)C)c2c1CCC2", "note": "[ICI 118,551 (hydrochloride)]", "values": [{"measurement": "remaining activity at 1.25 µM", "setting": "[1]; Well no.=7035", "value": 106, "unit": "%"}]}, {"smiles": "Cc1cc2c(cc1Cl)N(C(=O)Nc1ccc(Oc3cccnc3C)nc1)CC2", "note": "[SB 242084]", "values": [{"measurement": "remaining activity at 1.25 µM", "setting": "[1]; Well no.=7137", "value": 103, "unit": "%"}]}, {"smiles": "COc1cc2nc(N3CCN(C(=O)c4ccco4)CC3)nc(N)c2cc1OC", "note": "[Prazosin hydrochloride]", "values": [{"measurement": "remaining activity at 1.25 µM", "setting": "[1]; Well no.=1349", "value": 98.8, "unit": "%"}]}, {"smiles": "CC(=O)[C@H]1CC[C@H]2[C@@H]3CC[C@H]4C[C@H](O)CC[C@]4(C)[C@H]3CC[C@]12C", "note": "[5alpha-Pregnan-3alpha-ol-20-one]", "values": [{"measurement": "remaining activity at 1.25 µM", "setting": "[1]; Well no.=1353", "value": 104, "unit": "%"}]}, {"smiles": "CC(NC(C)(C)C)C(=O)c1cccc(Cl)c1", "note": "(stereo not shown) [Amfebutamone]", "values": [{"measurement": "remaining activity at 1.25 µM", "setting": "[1]; Well no.=1694", "value": 98.7, "unit": "%"}]}, {"smiles": "COc1cc2ncnc(Nc3ccc(F)c(Cl)c3)c2cc1OCCCN1CCOCC1", "note": "[Iressa - N-(3-chloro-4-fluoro-phenyl)-7-methoxy-6-(3-morpholin-4-ylpropoxy)quinazolin-4-amine]", "values": [{"measurement": "remaining activity at 1.25 µM", "setting": "[1]; Well no.=2670", "value": 97.6, "unit": "%"}]}]}
